According to patent US12024510B2, “Pyrazolopyridine-diamides, their use as insecticide and processes for preparing the same” (PI INDUSTRIES LTD., priority 2017, dated 2024):

System: Plutella xylostella
Assay: whole plant or invertebrate
Type: in vivo
Conditions: foliar, cabbage leaf dip, second instar larvae, dead and moribund combined, 72 h after release
Method: Test Solutions were Prepared According to the Procedure Described Herein Below (500 PPM):
• 1. Eppendorf Vortex mixer (ThermoMixer C) and 1.5 mL Eppendorf tubes • 2. Zirconia (Zirconium-Yttrium) beads having diameter of 0.8 to 1.0 mm • 3. Microscope • 4. Beaker 100 mL • 5. Micro-pipette Reagents: • 1. Surfactant Solution • 2. De-mineralized (DM) Water • 1. Weigh 10 mg of the compound of the present invention to be tested in an Eppendorf Tube. • 2. Add 200 mg of the Surfactant Solution into the tube. • 3. Add 600 mg of Zirconia beads into the above mixture. • 4. Fix the tube in Eppendorf Vortex mixer and start vortexing at 2000 rpm. • 5. Mix on Vortex mixer for 30 minutes. After 30 minutes, observe the sample over a microscope at 400× resolution. • 6. If the Maximum particle size is more than 5 μm or average particle size is more than 2 μm or the particle size distribution is uneven, continue vortexing for another 30 minutes and again check the particle size using the microscope. Continue till the average particle size is below 2 microns. • 7. When the required particle size is achieved, add 1.0 mL DM water into the tube, close the cap, shake the tube thoroughly and transfer the contents, along with the beads, into a beaker. • 8. To rinse the tube, add another 1.0 mL of DM water into the tube, close the cap, shake well and transfer this into the same beaker. • 9. Repeat Step no. 8 one more time so that the tube is rinsed well and the compound of the present invention to be tested is transferred to the beaker. • 10. Add 16.8 mL of DM water into the beaker and stir well. • 11. The homogeneous dispersion can then be decanted into a glass vial, immediately, to separate the Zirconia beads. • 12. Immediately use this sample for biological testing. • 13. Further dilutions can be prepared by taking appropriate quantity of the aliquot of Step 10, immediately after stirring, and diluting as per requirement. The sample solution must be well mixed just before biological testing.
Leaf dip method was used for screening, wherein the required quantity of the compounds were weighed and dissolved in the test solution into the tube and vortex at 2000 rpm with Zirconia beads for 90 min for proper mixing, then mixed with 0.01% Triton-X solution to get the desired test concentration. Cabbage leaves were dipped in the solution for 10 seconds, shade dried for 20 min and then transferred to bioassay trays. Single second instar larva was released into each cell and the tray was covered with lid. The bio-assay trays were kept under laboratory conditions at a temperature of 25° C. and relative humidity of 70%. Observations on dead, moribund and live larvae were recorded at 72 h after the release. Percent mortality was calculated by combining dead and moribund larvae. The following compound num.

| SMILES | mortality at 300 ppm [%] |
| --- | --- |
| CCCNC(=O)c1c(NC(=O)c2cc(OCC(F)(F)F)nn2-c2ncccc2Cl)c(C)cc2ccnn12 [Compound 11, 6-(1-(3-chloropyridin-2-yl)-3-(2,2,2-trifluoroethoxy)-1H-pyrazole-5-carboxamido)-5-methyl-N-propylpyrazolo[1,5-a]pyridine-7-carboxamide] | > 70 |
| Cc1cc2ccnn2c(C(=O)N2CC(F)(F)C2)c1NC(=O)c1cc(Br)nn1-c1ncccc1Cl [Compound 23, 3-bromo-1-(3-chloropyridin-2-yl)-N-(7-(3,3-difluoroazetidine-1-carbonyl)-5-methylpyrazolo[1,5-a]pyridin-6-yl)-1H-pyrazole-5-carboxamide] | > 70 |
| Cc1cc2ccnn2c(C(=O)N2CCC2)c1NC(=O)c1cc(Br)nn1-c1ncccc1Cl [Compound 34, N-(7-(azetidine-1-carbonyl)-5-methylpyrazolo[1,5-a]pyridin-6-yl)-3-bromo-1-(3-chloropyridin-2-yl)-1H-pyrazole-5-carboxamide] | > 70 |
| COc1cc(C(=O)Nc2c(C)cc3ccnn3c2C(=O)N2CC(F)(F)C2)n(-c2ncccc2Cl)n1 [Compound 39, 1-(3-chloropyridin-2-yl)-N-(7-(3,3-difluoroazetidine-1-carbonyl)-5-methylpyrazolo[1,5-a]pyridin-6-yl)-3-methoxy-1H-pyrazole-5-carboxamide] | > 70 |
| C#CCNC(=O)c1c(NC(=O)c2cc(OCC(F)(F)F)nn2-c2ncccc2Cl)c(C)cc2ccnn12 [Compound 48, 6-(1-(3-chloropyridin-2-yl)-3-(2,2,2-trifluoroethoxy)-1H-pyrazole-5-carboxamido)-5-methyl-N-(prop-2-yn-1-yl)pyrazolo[1,5-a]pyridine-7-carboxamide] | > 70 |
| CNC(=O)c1c(NC(=O)c2cc(Oc3cc(C(F)(F)F)nn3C)nn2-c2ncccc2Cl)c(C)cc2ccnn12 [Compound 69, 6-(1-(3-chloropyridin-2-yl)-3-((1-methyl-3-(trifluoromethyl)-1H-pyrazol-5-yl)oxy)-1H-pyrazole-5-carboxamido)-N,5-dimethylpyrazolo[1,5-a]pyridine-7-carboxamide] | > 70 |
| CCNC(=O)c1c(NC(=O)c2cc(Oc3cc(C(F)(F)F)nn3C)nn2-c2ncccc2Cl)c(C)cc2ccnn12 [Compound 70, 6-(1-(3-chloropyridin-2-yl)-3-((1-methyl-3-(trifluoromethyl)-1H-pyrazol-5-yl)oxy)-1H-pyrazole-5-carboxamido)-N-ethyl-5-methylpyrazolo[1,5-a]pyridine-7-carboxamide] | > 70 |
| Cc1cc2ccnn2c(C(=O)NC2CC2)c1NC(=O)c1cc(Oc2cc(C(F)(F)F)nn2C)nn1-c1ncccc1Cl [Compound 79, 6-(1-(3-chloropyridin-2-yl)-3-((1-methyl-3-(trifluoromethyl)-1H-pyrazol-5-yl)oxy)-1H-pyrazole-5-carboxamido)-N-cyclopropyl-5-methylpyrazolo[1,5-a]pyridine-7-carboxamide] | > 70 |
| Cc1cc2ccnn2c(C(=O)NCC2CC2)c1NC(=O)c1cc(Oc2cc(C(F)(F)F)nn2C)nn1-c1ncccc1Cl [Compound 80, 6-(1-(3-chloropyridin-2-yl)-3-((1-methyl-3-(trifluoromethyl)-1H-pyrazol-5-yl)oxy)-1H-pyrazole-5-carboxamido)-N-(cyclopropylmethyl)-5-methylpyrazolo[1,5-a]pyridine-7-carboxamide] | > 70 |
| COCCNC(=O)c1c(NC(=O)c2cc(Br)nn2-c2ncccc2Cl)c(Br)cc2ccnn12 [Compound 88, 5-bromo-6-(3-bromo-1-(3-chloropyridin-2-yl)-1H-pyrazole-5-carboxamido)-N-(2-methoxyethyl)pyrazolo[1,5-a]pyridine-7-carboxamide] | > 70 |
| CCCNC(=O)c1c(NC(=O)c2cc(OC3CSC3)nn2-c2ncccc2Cl)c(C)cc2ccnn12 [Compound 103, 6-(1-(3-chloropyridin-2-yl)-3-(thietan-3-yloxy)-1H-pyrazole-5-carboxamido)-5-methyl-N-propylpyrazolo[1,5-a]pyridine-7-carboxamide] | > 70 |
| CNC(=O)c1c(NC(=O)c2cc(C(F)(F)F)nn2-c2ncccc2Cl)c(Br)cc2ccnn12 [Compound 104, 5-bromo-6-(1-(3-chloropyridin-2-yl)-3-(trifluoromethyl)-1H-pyrazole-5-carboxamido)-N-methylpyrazolo[1,5-a]pyridine-7-carboxamide] | > 70 |
| Cc1cc2ccnn2c(C(=O)NOC(C)C)c1NC(=O)c1cc(Br)nn1-c1ncccc1Cl [Compound 105, 6-(3-bromo-1-(3-chloropyridin-2-yl)-1H-pyrazole-5-carboxamido)-N-isopropoxy-5-methylpyrazolo[1,5-a]pyridine-7-carboxamide] | > 70 |
| COc1cc(C(=O)Nc2c(C)cc3ccnn3c2C(N)=O)n(-c2ncccc2Cl)n1 [Compound 111, 6-(1-(3-chloropyridin-2-yl)-3-methoxy-1H-pyrazole-5-carboxamido)-5-methylpyrazolo[1,5-a]pyridine-7-carboxamide] | > 70 |
| CCONC(=O)c1c(NC(=O)c2cc(OC)nn2-c2ncccc2Cl)c(C)cc2ccnn12 [Compound 112, 6-(1-(3-chloropyridin-2-yl)-3-methoxy-1H-pyrazole-5-carboxamido)-N-ethoxy-5-methylpyrazolo[1,5-a]pyridine-7-carboxamide] | > 70 |
| COc1cc(C(=O)Nc2c(C)cc3ccnn3c2C(=O)NOC(C)C)n(-c2ncccc2Cl)n1 [Compound 113, 6-(1-(3-chloropyridin-2-yl)-3-methoxy-1H-pyrazole-5-carboxamido)-N-isopropoxy-5-methylpyrazolo[1,5-a]pyridine-7-carboxamide] | > 70 |
| COCCNC(=O)c1c(NC(=O)c2cc(C(F)(F)F)nn2-c2ncccc2Cl)c(C)cc2ccnn12 [Compound 118, 6-(1-(3-chloropyridin-2-yl)-3-(trifluoromethyl)-1H-pyrazole-5-carboxamido)-N-(2-methoxyethyl)-5-methylpyrazolo[1,5-a]pyridine-7-carboxamide] | > 70 |
| Cc1cc2ccnn2c(C(=O)NC2CONC2=O)c1NC(=O)c1cc(C(F)(F)F)nn1-c1ncccc1Cl (centres unmarked) [Compound 128, 6-(1-(3-chloropyridin-2-yl)-3-(trifluoromethyl)-1H-pyrazole-5-carboxamido)-5-methyl-N-(3-oxoisoxazolidin-4-yl)pyrazolo[1,5-a]pyridine-7-carboxamide] | > 70 |
| O=C(Nc1c(Br)cc2ccnn2c1C(=O)NC1CONC1=O)c1cc(C(F)(F)F)nn1-c1ncccc1Cl (centres unmarked) [Compound 129, 5-bromo-6-(1-(3-chloropyridin-2-yl)-3-(trifluoromethyl)-1H-pyrazole-5-carboxamido)-N-(3-oxoisoxazolidin-4-yl)pyrazolo[1,5-a]pyridine-7-carboxamide] | > 70 |
| CCNC(=O)c1c(NC(=O)c2cc(OC3CSC3)nn2-c2ncccc2Cl)c(C)cc2ccnn12 [Compound 144, 6-(1-(3-chloropyridin-2-yl)-3-(thietan-3-yloxy)-1H-pyrazole-5-carboxamido)-N-ethyl-5-methylpyrazolo[1,5-a]pyridine-7-carboxamide] | > 70 |
